From US8785452B2, “Anti-infective compounds” (priority 2008, dated 2014) come the findings set out here.

The subject of one data set is Raw264.7 cells. In words: Cell number (CellNb) from image analysis of the phenotypic cell-based assay. The settings on record: primary screen, 20 μM.
Regarding `Oc1ccc(Br)cc1/C=N/c1ccccc1O` [IPK 000 043 83], the “Primary QIM CellNb” value turned out to be 89.0.
The same measure, in the same setting: with `O=C(N/N=C/c1cccc(Br)c1)c1ccncc1` [IPK 000 043 09] the figure was 258.5.
For the compound `O=C(N/N=C/c1cc2ccccc2[nH]1)c1ccncc1` [IPK 000 043 12], the “Primary QIM CellNb” value is reported as 195.0.
As to `COc1cccc(/C=N/NC(=O)c2ccncc2)c1OC` [IPK 000 043 02], the “Primary QIM CellNb” value is 229.5.
Take `O=C(N/N=C/c1ccc([N+](=O)[O-])s1)C1CCN(Cc2ccc(Br)cc2)CC1` [IPK 000 091 49]: the “Primary QIM CellNb” value came to 110.5.
Regarding `CC/C(Cc1ccccc1)=N\NC(=O)c1ccncc1` [IPK 000 078 86], the “Primary QIM CellNb” value is listed as 462.0.
`CN1CCN(NC(=O)c2ccc(COc3ccc(Cl)cc3Cl)o2)CC1` [IPK 000 123 92]: the “Primary QIM CellNb” value was 135.8.
Regarding `O=[N+]([O-])c1cc(/C=N/c2ccc(S(=O)(=O)NC3NC=CS3)cc2)c2c(c1)COCO2` (stereo not shown) [IPK 000 057 92], the “Primary QIM CellNb” value stood at 165.3.
The same measure, in the same setting: with `Nc1nonc1NC(=O)CSc1cccc2ccccc12` [IPK 000 106 30] the figure was 146.5; with `COc1ccc(/C=N/NC(=O)c2ccncc2)c(OC)c1` [IPK 000 043 00], 333.3.
Same read-out and setting: with `O=C(CS)Nc1ccccc1Cl` [IPK 000 108 27] the figure was 171.0.
The same measure, in the same setting: in the case of `Oc1c(Cl)cc(Cl)cc1C(=S)Nc1ccccc1` [IPK 000 042 78] it was 194.5; in that of `CCOc1ccc2ccccc2c1/C=N/NC(=O)c1ccncc1` [IPK 000 043 62], 393.8.

In the next data set the test system is Raw264.7 cells.
Assay: not given
The note with it: mouse, 5 days, 20 μM.
As for `Oc1ccc(Br)cc1/C=N/c1ccccc1O` [IPK 000 043 83], the “Primary QIM CellNb” value was 17.1.
As for `O=C(N/N=C/c1cccc(Br)c1)c1ccncc1` [IPK 000 043 09], the “Primary QIM CellNb” value is given as 100.5.
For `O=C(N/N=C/c1cc2ccccc2[nH]1)c1ccncc1` [IPK 000 043 12], the “Primary QIM CellNb” value turned out to be 104.6.
Turning to `COc1cccc(/C=N/NC(=O)c2ccncc2)c1OC` [IPK 000 043 02], the “Primary QIM CellNb” value is reported as 98.7.
Turning to `O=C(N/N=C/c1ccc([N+](=O)[O-])s1)C1CCN(Cc2ccc(Br)cc2)CC1` [IPK 000 091 49], the “Primary QIM CellNb” value was 9.3.
Same read-out and setting: in the case of `CC/C(Cc1ccccc1)=N\NC(=O)c1ccncc1` [IPK 000 078 86] it was 88.3; in that of `CN1CCN(NC(=O)c2ccc(COc3ccc(Cl)cc3Cl)o2)CC1` [IPK 000 123 92], 32.3; in that of `O=[N+]([O-])c1cc(/C=N/c2ccc(S(=O)(=O)NC3NC=CS3)cc2)c2c(c1)COCO2` (stereo not shown) [IPK 000 057 92], 23.0.
For `Nc1nonc1NC(=O)CSc1cccc2ccccc12` [IPK 000 106 30], the “Primary QIM CellNb” value is 28.5.
The same measure, in the same setting: in the case of `COc1ccc(/C=N/NC(=O)c2ccncc2)c(OC)c1` [IPK 000 043 00] it was 101.4.
On to `O=C(CS)Nc1ccccc1Cl` [IPK 000 108 27], for which the “Primary QIM CellNb” value was found to be 19.0.
With `Oc1c(Cl)cc(Cl)cc1C(=S)Nc1ccccc1` [IPK 000 042 78], the “Primary QIM CellNb” value was determined as 33.0.
Same read-out and setting: with `CCOc1ccc2ccccc2c1/C=N/NC(=O)c1ccncc1` [IPK 000 043 62] the figure was 98.8.

Another data set deals with M. tuberculosis H37Rv-GFP. In words: microbe, parasite or virus in culture. The data set is classed as cell-based, Mycobacterium tuberculosis. The settings on record: Mycobacterium tuberculosis, H37RV, Macrophage; confirmation, 20 uM; read-out: QIM Confirm % Inhibition 20 uM.
By inhibition is commonly meant the change of the read-out against control, counted positive when it falls. `Oc1ccc(Br)cc1/C=N/c1ccccc1O` [IPK 000 043 83]: the inhibition at 20 µM was 31.3%.
As for `O=C(N/N=C/c1cccc(Br)c1)c1ccncc1` [IPK 000 043 09], the inhibition at 20 µM stood at 102%.
The same measure, in the same setting: in the case of `O=C(N/N=C/c1cc2ccccc2[nH]1)c1ccncc1` [IPK 000 043 12] it was 100%; in that of `COc1cccc(/C=N/NC(=O)c2ccncc2)c1OC` [IPK 000 043 02], 99.8%.
With `O=C(N/N=C/c1ccc([N+](=O)[O-])s1)C1CCN(Cc2ccc(Br)cc2)CC1` [IPK 000 091 49], the inhibition at 20 µM was 95.1%.
Still for that read-out and setting: in the case of `CC/C(Cc1ccccc1)=N\NC(=O)c1ccncc1` [IPK 000 078 86] it was 108%; in that of `CN1CCN(NC(=O)c2ccc(COc3ccc(Cl)cc3Cl)o2)CC1` [IPK 000 123 92], 15.4%.
Same read-out and setting: in the case of `O=[N+]([O-])c1cc(/C=N/c2ccc(S(=O)(=O)NC3NC=CS3)cc2)c2c(c1)COCO2` (stereo not shown) [IPK 000 057 92] it was 27.2%.
Same read-out and setting: with `Nc1nonc1NC(=O)CSc1cccc2ccccc12` [IPK 000 106 30] the figure was 67.2%.
With `COc1ccc(/C=N/NC(=O)c2ccncc2)c(OC)c1` [IPK 000 043 00], the inhibition at 20 µM was 102%.
Regarding `O=C(CS)Nc1ccccc1Cl` [IPK 000 108 27], the inhibition at 20 µM is 44.1%.
Same read-out and setting: with `Oc1c(Cl)cc(Cl)cc1C(=S)Nc1ccccc1` [IPK 000 042 78] the figure was 91.7%.
On to `CCOc1ccc2ccccc2c1/C=N/NC(=O)c1ccncc1` [IPK 000 043 62], for which the inhibition at 20 µM came to 104%.

The data set is the same for the next values; noted with them: Mycobacterium tuberculosis, H37RV, Macrophage; primary screen, 20 μM; read-out: Primary QIM % Inhibition.
Take `Oc1ccc(Br)cc1/C=N/c1ccccc1O` [IPK 000 043 83]: the inhibition at 20 µM is -80.9%.
`O=C(N/N=C/c1cccc(Br)c1)c1ccncc1` [IPK 000 043 09]: the inhibition at 20 µM came to 95.8%.
`O=C(N/N=C/c1cc2ccccc2[nH]1)c1ccncc1` [IPK 000 043 12]: the inhibition at 20 µM amounted to 69.9%.
On the same count and under the same terms, with `COc1cccc(/C=N/NC(=O)c2ccncc2)c1OC` [IPK 000 043 02] the figure was 81.1%.
The same measure, in the same setting: in the case of `O=C(N/N=C/c1ccc([N+](=O)[O-])s1)C1CCN(Cc2ccc(Br)cc2)CC1` [IPK 000 091 49] it was 90.5%.
For `CC/C(Cc1ccccc1)=N\NC(=O)c1ccncc1` [IPK 000 078 86], the inhibition at 20 µM came out at 96.9%.
On the same count and under the same terms, in the case of `CN1CCN(NC(=O)c2ccc(COc3ccc(Cl)cc3Cl)o2)CC1` [IPK 000 123 92] it was 45.3%.
Regarding `O=[N+]([O-])c1cc(/C=N/c2ccc(S(=O)(=O)NC3NC=CS3)cc2)c2c(c1)COCO2` (stereo not shown) [IPK 000 057 92], the inhibition at 20 µM is -30.7%.
The same measure, in the same setting: in the case of `Nc1nonc1NC(=O)CSc1cccc2ccccc12` [IPK 000 106 30] it was 65.7%; in that of `COc1ccc(/C=N/NC(=O)c2ccncc2)c(OC)c1` [IPK 000 043 00], 104%; in that of `O=C(CS)Nc1ccccc1Cl` [IPK 000 108 27], 54.7%.
Consider `Oc1c(Cl)cc(Cl)cc1C(=S)Nc1ccccc1` [IPK 000 042 78], for which the inhibition at 20 µM was determined as 73.9%.
On the same count and under the same terms, with `CCOc1ccc2ccccc2c1/C=N/NC(=O)c1ccncc1` [IPK 000 043 62] the figure was 98.2%.
